Data: ChEMBL document CHEMBL1201862, “PubChem BioAssay data set” (2004)
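Test compounds were applied to cells in 96-well plates for 48 hours at 5 doses. GI50 = concentration required for 50% inhibition of growth.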 Activity calls are given as the source filed them. Rule as the data show it: active = GI50 up to about 1.1 µM and inactive = higher.

Key:
Test in all cases: NCI tumour cell line growth inhibition, 48 h
HL-60 = tested on: HL-60
HCC 2998 = tested on: HCC 2998
SW-620 = tested on: SW-620
EKVX = tested on: EKVX
K562 = tested on: K562
M14 = tested on: M14
IGROV-1 = tested on: IGROV-1
NCI-H460 = tested on: NCI-H460
SNB-75 = tested on: SNB-75
HCT-15 = tested on: HCT-15
ACHN = tested on: ACHN
NCI-H522 = tested on: NCI-H522
KM12 = tested on: KM12
SK-OV-3 = tested on: SK-OV-3
A498 = tested on: A498
OVCAR-8 = tested on: OVCAR-8
RPMI-8226 = tested on: RPMI-8226
SK-MEL-2 = tested on: SK-MEL-2

SMILES: COc1cc(Cl)cc(N(O)C(C)=O)c1OCc1ccccc1
- GI50 (HL-60): 40.7 µM (inactive)
- GI50 (HCC 2998): > 100 µM (inactive)
- GI50 (SW-620): > 100 µM (inactive)
- GI50 (EKVX): 30.9 µM (inactive)
- GI50 (K562): 75.9 µM (inactive)
- GI50 (M14): > 100 µM (inactive)
- GI50 (IGROV-1): > 100 µM (inactive)
- GI50 (NCI-H460): 48.1 µM (inactive)
- GI50 (SNB-75): 24.8 µM (inactive)
- GI50 (HCT-15): 51.4 µM
- GI50 (ACHN): 63.4 µM (inactive)
- GI50 (NCI-H522): 62.1 µM (inactive)
- GI50 (KM12): > 100 µM (inactive)
- GI50 (SK-OV-3): 74 µM (inactive)
- GI50 (A498): > 100 µM (inactive)
- GI50 (OVCAR-8): 70.8 µM (inactive)
- GI50 (RPMI-8226): 96.6 µM (inactive)

SMILES: CN(C)/C=C/C(=CC=[N+](C)C)/C=C/N(C)C.[O-][Cl+3]([O-])([O-])[O-]
- GI50 (HL-60): > 100 µM (inactive)
- GI50 (HCC 2998): > 100 µM (inactive)
- GI50 (SW-620): > 100 µM (inactive)
- GI50 (SK-MEL-2): > 100 µM (inactive)
- GI50 (K562): > 100 µM (inactive)
- GI50 (M14): > 100 µM (inactive)
- GI50 (IGROV-1): > 100 µM (inactive)
- GI50 (NCI-H460): > 100 µM (inactive)
- GI50 (ACHN): > 100 µM (inactive)
- GI50 (NCI-H522): > 100 µM (inactive)
- GI50 (KM12): > 100 µM (inactive)
- GI50 (SK-OV-3): 16.7 µM (inactive)
- GI50 (A498): 31.3 µM (inactive)
- GI50 (OVCAR-8): > 100 µM (inactive)
- GI50 (RPMI-8226): > 100 µM (inactive)

SMILES: CC(C)NCCCC(C)Nc1ccnc2ccc3nn(C)nc3c12 (stereo not drawn)
- GI50 (HL-60): 42.4 µM (inactive)
- GI50 (HCC 2998): 57.9 µM (inactive)
- GI50 (SW-620): 38.5 µM (inactive)
- GI50 (EKVX): > 100 µM (inactive)
- GI50 (K562): 33.2 µM (inactive)
- GI50 (M14): 38.8 µM (inactive)
- GI50 (IGROV-1): > 100 µM (inactive)
- GI50 (NCI-H460): 38.6 µM (inactive)
- GI50 (SNB-75): > 100 µM (inactive)
- GI50 (ACHN): 61.2 µM (inactive)
- GI50 (NCI-H522): > 100 µM (inactive)
- GI50 (KM12): 50.8 µM (inactive)
- GI50 (SK-OV-3): > 100 µM (inactive)
- GI50 (A498): > 100 µM (inactive)
- GI50 (OVCAR-8): 43.6 µM (inactive)
- GI50 (RPMI-8226): 74.8 µM (inactive)

SMILES: Cc1nc(N)sc1C(=O)/C=C/c1ccc([N+](=O)[O-])cc1
- GI50 (HL-60): > 100 µM (inactive)
- GI50 (HCC 2998): > 100 µM (inactive)
- GI50 (SW-620): > 100 µM (inactive)
- GI50 (EKVX): > 100 µM (inactive)
- GI50 (SK-MEL-2): > 100 µM (inactive)
- GI50 (K562): > 100 µM (inactive)
- GI50 (IGROV-1): > 100 µM (inactive)
- GI50 (NCI-H460): > 100 µM (inactive)
- GI50 (SNB-75): 64.6 µM (inactive)
- GI50 (HCT-15): > 100 µM
- GI50 (NCI-H522): > 100 µM (inactive)
- GI50 (KM12): > 100 µM (inactive)
- GI50 (SK-OV-3): > 100 µM (inactive)
- GI50 (A498): > 100 µM (inactive)
- GI50 (OVCAR-8): > 100 µM (inactive)
- GI50 (RPMI-8226): > 100 µM (inactive)

SMILES: COc1ccc(NC(=O)CC/C(CC(=O)C(C)(C)C)=N\NC(=O)C(=O)NN)cc1
- GI50 (HL-60): > 100 µM (inactive)
- GI50 (HCC 2998): > 100 µM (inactive)
- GI50 (SW-620): > 100 µM (inactive)
- GI50 (EKVX): > 100 µM (inactive)
- GI50 (SK-MEL-2): > 100 µM (inactive)
- GI50 (K562): > 100 µM (inactive)
- GI50 (M14): > 100 µM (inactive)
- GI50 (IGROV-1): > 100 µM (inactive)
- GI50 (NCI-H460): > 100 µM (inactive)
- GI50 (SNB-75): > 100 µM (inactive)
- GI50 (HCT-15): > 100 µM
- GI50 (ACHN): > 100 µM (inactive)
- GI50 (NCI-H522): 44.2 µM (inactive)
- GI50 (KM12): > 100 µM (inactive)
- GI50 (SK-OV-3): > 100 µM (inactive)
- GI50 (A498): > 100 µM (inactive)
- GI50 (RPMI-8226): > 100 µM (inactive)

SMILES: CN(C(=O)C12C3C4C1C1C2C3C41I)C(C)(C)C (stereo not drawn)
- GI50 (HL-60): 33 µM (inactive)
- GI50 (HCC 2998): > 60 µM (inactive)
- GI50 (SW-620): > 100 µM (inactive)
- GI50 (EKVX): 64.9 µM (inactive)
- GI50 (SK-MEL-2): > 100 µM (inactive)
- GI50 (M14): > 100 µM (inactive)
- GI50 (IGROV-1): > 90.8 µM (inactive)
- GI50 (NCI-H460): > 100 µM (inactive)
- GI50 (SNB-75): > 65.6 µM (inactive)
- GI50 (HCT-15): 63.1 µM
- GI50 (ACHN): 98.9 µM (inactive)
- GI50 (NCI-H522): 48 µM (inactive)
- GI50 (KM12): > 100 µM (inactive)
- GI50 (SK-OV-3): > 100 µM (inactive)
- GI50 (A498): 53.8 µM (inactive)
- GI50 (OVCAR-8): > 100 µM (inactive)
- GI50 (RPMI-8226): > 100 µM (inactive)
